Results reported in ChEMBL document CHEMBL6092150, “Exploration of isatin-based inhibitors of SARS-CoV-2 Nsp15 endoribonuclease” (Eur J Med Chem, 2024).

Key:
[1] = tested on: SARS-CoV-2; experiment: Antiviral activity against SARS-CoV-2 Omicron BA.7 variant infected in human A549 cells transfected with human ACE2 and TMPRSS2 assessed as fold reduction in viral RNA load at 80 uM incubated for 3 days by qRT-PCR analysis relative to control; assay type: functional, Severe acute respiratory syndrome coronavirus 2; conditions: time 3 day
[2] = tested on: SARS-CoV-2; experiment: Antiviral activity against SARS-CoV-2 Omicron BA.7 variant infected in human A549 cells transfected with human ACE2 and TMPRSS2 assessed as fold reduction in viral RNA load incubated for 3 days by qRT-PCR analysis; assay type: functional; conditions: Severe acute respiratory syndrome coronavirus 2, Omicron BA.7, A549, 72 h; time 3 day
[3] = tested on: SARS-CoV-2; experiment: Antiviral activity against SARS-CoV-2 Omicron BA.7 variant infected in human A549 cells transfected with human ACE2 and TMPRSS2 assessed as fold reduction in viral RNA load at 40 uM incubated for 3 days by qRT-PCR analysis relative to control; assay type: functional, Severe acute respiratory syndrome coronavirus 2; conditions: time 3 day

SMILES	fold change (FC) [1]	EC90 [2] [µM]	fold change (FC) [3]
N#CC(C#N)=C1C(=O)Nc2ccc([N+](=O)[O-])cc21	425	54	
N#CC(C#N)=C1C(=O)Nc2c(Br)cc(Br)cc21	68000	39	
N#C[C@@]1(c2ccc3c(N)ncnn23)O[C@H](CO)[C@@H](O)[C@H]1O [GS-441524]		2	72000
